According to publication PMC7316778 (Nature Communications, 2020):
“And” between values parts separate entries of the source, which are not always exact repeats. Identical values can stand only once. Like-named read-outs stand apart in the source and are kept apart here.

What was measured:
WNK1 = WNK1 (Homo sapiens, UniProt Q9H4A3); experiment: SelectScreen kinase assay
Description: (§1) Selectivity profiling assays were performed by the Invitrogen SelectScreen™ Services. […] The concentration of ATP was selected to be equal to the KM, unless indicated otherwise.

PAK1 = PAK1 (Homo sapiens, UniProt Q13153); experiment: SelectScreen kinase assay
Description: as §1

RPS6KA6 (RSK4) = RPS6KA6 (RSK4) (Homo sapiens, UniProt Q9UK32); experiment: SelectScreen kinase assay
Chain of RPS6KA6 (RSK4) (Q9UK32 whole entry): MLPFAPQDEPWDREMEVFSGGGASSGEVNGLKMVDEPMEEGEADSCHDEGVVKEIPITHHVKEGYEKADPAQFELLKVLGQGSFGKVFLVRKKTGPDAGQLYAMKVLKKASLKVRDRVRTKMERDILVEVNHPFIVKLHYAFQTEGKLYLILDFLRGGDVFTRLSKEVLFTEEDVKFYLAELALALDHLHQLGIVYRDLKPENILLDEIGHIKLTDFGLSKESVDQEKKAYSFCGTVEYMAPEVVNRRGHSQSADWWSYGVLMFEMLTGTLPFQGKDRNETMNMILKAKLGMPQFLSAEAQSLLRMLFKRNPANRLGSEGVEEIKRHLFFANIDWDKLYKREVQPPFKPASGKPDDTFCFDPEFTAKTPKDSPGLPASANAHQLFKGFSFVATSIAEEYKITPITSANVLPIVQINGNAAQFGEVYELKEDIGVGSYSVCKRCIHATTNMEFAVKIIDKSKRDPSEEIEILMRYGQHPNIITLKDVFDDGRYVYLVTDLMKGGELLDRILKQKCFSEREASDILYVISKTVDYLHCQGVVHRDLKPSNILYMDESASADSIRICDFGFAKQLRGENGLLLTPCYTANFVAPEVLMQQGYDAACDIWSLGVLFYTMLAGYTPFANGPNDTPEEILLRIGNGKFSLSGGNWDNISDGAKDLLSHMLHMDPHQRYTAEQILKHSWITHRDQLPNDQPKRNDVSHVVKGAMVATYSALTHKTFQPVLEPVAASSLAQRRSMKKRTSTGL
Description: as §1

PIK3C2A (PI3K-C2 alpha) = PIK3C2A (PI3K-C2 alpha) (Homo sapiens, UniProt O00443); experiment: SelectScreen kinase assay; conditions: 1 h, 1 μM WEL028, 1 h preincubation
Description: as §1

HIPK2 = HIPK2 (Homo sapiens, UniProt Q9H2X6); experiment: SelectScreen kinase assay; conditions: for Inhibition at 1 µM (%): HIPK2, ZLYTE, ATP Km app
Chain of HIPK2 (Q9H2X6 whole entry): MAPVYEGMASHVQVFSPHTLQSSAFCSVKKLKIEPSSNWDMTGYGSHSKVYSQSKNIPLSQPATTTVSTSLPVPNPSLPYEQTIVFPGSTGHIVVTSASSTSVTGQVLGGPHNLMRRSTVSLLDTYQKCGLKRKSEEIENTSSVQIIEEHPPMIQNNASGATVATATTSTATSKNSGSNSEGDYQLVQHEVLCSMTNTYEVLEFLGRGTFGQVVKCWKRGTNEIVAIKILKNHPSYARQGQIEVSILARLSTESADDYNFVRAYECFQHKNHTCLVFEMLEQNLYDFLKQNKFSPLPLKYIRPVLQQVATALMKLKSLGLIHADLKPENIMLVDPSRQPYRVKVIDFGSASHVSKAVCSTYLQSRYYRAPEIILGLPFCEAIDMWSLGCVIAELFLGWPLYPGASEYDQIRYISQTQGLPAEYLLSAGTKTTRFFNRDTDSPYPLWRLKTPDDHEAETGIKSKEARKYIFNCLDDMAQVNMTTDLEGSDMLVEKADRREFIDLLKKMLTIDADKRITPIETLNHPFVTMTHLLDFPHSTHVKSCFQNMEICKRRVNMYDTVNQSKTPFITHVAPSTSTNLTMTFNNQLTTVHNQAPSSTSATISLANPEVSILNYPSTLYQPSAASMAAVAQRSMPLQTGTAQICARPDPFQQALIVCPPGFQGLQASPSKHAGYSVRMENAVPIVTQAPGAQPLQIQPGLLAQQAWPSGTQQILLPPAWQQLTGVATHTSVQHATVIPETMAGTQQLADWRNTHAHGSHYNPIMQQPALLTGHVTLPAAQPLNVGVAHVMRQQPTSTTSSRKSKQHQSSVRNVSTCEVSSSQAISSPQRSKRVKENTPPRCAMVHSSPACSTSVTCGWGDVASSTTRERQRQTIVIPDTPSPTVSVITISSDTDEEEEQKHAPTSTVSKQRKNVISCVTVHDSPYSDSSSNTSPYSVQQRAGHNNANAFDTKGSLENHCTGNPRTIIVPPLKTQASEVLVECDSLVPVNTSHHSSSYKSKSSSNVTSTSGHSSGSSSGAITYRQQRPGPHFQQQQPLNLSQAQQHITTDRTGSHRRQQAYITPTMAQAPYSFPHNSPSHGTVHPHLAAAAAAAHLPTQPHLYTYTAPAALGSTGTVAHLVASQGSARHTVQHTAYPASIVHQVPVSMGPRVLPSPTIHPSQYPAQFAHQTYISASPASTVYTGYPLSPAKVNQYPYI
Description: as §1

ROS1 = ROS1 (Homo sapiens, UniProt P08922); experiment: SelectScreen kinase assay
Description: as §1

[1] = biological target: T1, endogenous FES^S700C in HL-60 cells (Homo sapiens, UniProt P07332, S700C); experiment: Gel-based target engagement during PMA-induced macrophage differentiation; assay type: cell-based; conditions: for Relative FES labeling (%): Figure 6b
T1 construct: endogenous in cells; host or cells: HL-60 FES^S700C clone, differentiated to macrophages or neutrophils
T1 sequence (P07332 whole entry S700C): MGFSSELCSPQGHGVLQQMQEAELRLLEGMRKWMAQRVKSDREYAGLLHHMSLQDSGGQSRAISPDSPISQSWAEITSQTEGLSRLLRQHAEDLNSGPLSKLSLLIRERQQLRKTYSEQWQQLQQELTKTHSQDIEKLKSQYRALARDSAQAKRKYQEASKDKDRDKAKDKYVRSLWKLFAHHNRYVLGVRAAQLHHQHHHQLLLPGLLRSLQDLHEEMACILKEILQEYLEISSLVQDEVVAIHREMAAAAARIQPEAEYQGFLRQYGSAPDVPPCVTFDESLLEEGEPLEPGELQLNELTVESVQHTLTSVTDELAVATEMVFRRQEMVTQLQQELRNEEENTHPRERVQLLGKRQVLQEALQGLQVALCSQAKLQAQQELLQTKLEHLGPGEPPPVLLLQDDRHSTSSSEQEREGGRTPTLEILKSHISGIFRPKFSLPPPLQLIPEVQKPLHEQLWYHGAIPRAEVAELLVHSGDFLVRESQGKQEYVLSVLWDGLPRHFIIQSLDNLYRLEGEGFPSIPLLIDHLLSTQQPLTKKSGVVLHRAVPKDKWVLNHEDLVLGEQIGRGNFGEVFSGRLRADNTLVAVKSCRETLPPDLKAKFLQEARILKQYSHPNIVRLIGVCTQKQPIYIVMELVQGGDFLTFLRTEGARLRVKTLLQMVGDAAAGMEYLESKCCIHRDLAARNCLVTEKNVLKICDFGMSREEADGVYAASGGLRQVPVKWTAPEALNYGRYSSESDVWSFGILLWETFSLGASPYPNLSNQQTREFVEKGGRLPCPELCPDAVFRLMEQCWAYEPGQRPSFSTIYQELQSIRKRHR
Description: Cells were pretreated with vehicle or WEL028 (100 or 1000 nM, 1 h) prior to induction of differentiation towards monocytes/macrophages with PMA (16 nM, 48 h). Medium was refreshed with growth medium containing WEL028 and PMA after 24 h to maintain full FES inhibition. […] Threshold for CD11b-positive cells was determined using isotype control antibody. […] Kinases with native cysteine at DFG-1 position are shown in bold. All data represent means ± SEM.

GRK4 = GRK4 (Homo sapiens, UniProt P32298); experiment: SelectScreen kinase assay; conditions: for Inhibition at 1 µM (%): GRK4, ZLYTE, ATP Km app
Chain of GRK4 (P32298 whole entry): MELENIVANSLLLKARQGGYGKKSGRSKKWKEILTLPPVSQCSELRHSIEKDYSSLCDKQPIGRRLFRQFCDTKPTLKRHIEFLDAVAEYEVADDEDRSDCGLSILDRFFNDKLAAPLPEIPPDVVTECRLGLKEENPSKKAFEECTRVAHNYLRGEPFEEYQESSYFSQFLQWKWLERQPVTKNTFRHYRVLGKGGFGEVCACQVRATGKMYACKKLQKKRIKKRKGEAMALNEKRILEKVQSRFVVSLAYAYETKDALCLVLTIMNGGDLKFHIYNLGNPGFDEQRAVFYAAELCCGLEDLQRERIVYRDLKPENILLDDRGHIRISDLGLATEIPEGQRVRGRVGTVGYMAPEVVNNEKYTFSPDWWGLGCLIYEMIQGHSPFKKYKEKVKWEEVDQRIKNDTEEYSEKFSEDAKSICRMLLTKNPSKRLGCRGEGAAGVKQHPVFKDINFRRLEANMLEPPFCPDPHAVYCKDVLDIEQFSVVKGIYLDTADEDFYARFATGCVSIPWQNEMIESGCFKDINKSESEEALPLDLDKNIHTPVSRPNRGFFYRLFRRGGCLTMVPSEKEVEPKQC
Description: as §1

[2] = biological target: T2, FES^S700C-SYK interaction (Homo sapiens, UniProt P07332, S700C); experiment: Co-immunoprecipitation in co-transfected U2OS cells; assay type: cell-based; conditions: WEL028 200 nM, 1 h
T2 construct: Full-length human cDNA encoding FES and PAK4 was obtained from Source Bioscience; expressed in transfected cells; host or cells: U2OS (human osteosarcoma)
T2 sequence (P07332 whole entry S700C): as the sequence (P07332 whole entry S700C) above
Description: U2OS cells were co-transfected with FLAG-tagged FES and V5-tagged SYK and grown for 48 h as described above, followed by incubation with vehicle or WEL028 (200 nM) for 1 h. Cells were then washed with PBS and collected by scraping in IP-buffer (20 mM Tris-HCl pH 7.5, 150 mM NaCl, 1% Triton X-100 supplemented with […] Halt™ phosphatase and protease inhibitor cocktail (Thermo Fisher)). Cells were lysed by sonication on ice (three cycles of 10′′ on, 10′′ off at 25% maximum amplitude), centrifuged (14,000g, 10 min, 4 °C). The clear lysate was diluted to 1 mg/mL in IP-buffer and subjected to immunoprecipitation using Dynabeads™ Protein G Immunoprecipitation kit (Thermo Fisher) following manufacturer’s protocol. Briefly, anti-FLAG M2 antibody (1:100, Sigma Aldrich, F3156) was incubated with beads with gentle rotation (10 min, rt), after which lysate (500 µL of 1 mg/mL) was added and incubated (1 h, 4 °C). Beads were washed three times, transferred to clean tubes and eluted by suspension in 2× Laemmli buffer (50 µL, 10 min, 70 °C). Samples (10 µL per lane) were resolved by SDS-PAGE and immunoblotted using anti-V5 or anti-FLAG antibodies. Immunoprecipitations were performed in three independent replicates.

IKBKE (IKK epsilon) = IKBKE (IKK epsilon) (Homo sapiens, UniProt Q14164); experiment: SelectScreen kinase assay; conditions: 1 h, 1 μM WEL028, 1 h preincubation
Description: as §1

CSNK1A1 (CK1 alpha 1) = CSNK1A1 (CK1 alpha 1) (Homo sapiens, UniProt P48729); experiment: SelectScreen kinase assay
Chain of CSNK1A1 (CK1 alpha 1) (P48729 whole entry): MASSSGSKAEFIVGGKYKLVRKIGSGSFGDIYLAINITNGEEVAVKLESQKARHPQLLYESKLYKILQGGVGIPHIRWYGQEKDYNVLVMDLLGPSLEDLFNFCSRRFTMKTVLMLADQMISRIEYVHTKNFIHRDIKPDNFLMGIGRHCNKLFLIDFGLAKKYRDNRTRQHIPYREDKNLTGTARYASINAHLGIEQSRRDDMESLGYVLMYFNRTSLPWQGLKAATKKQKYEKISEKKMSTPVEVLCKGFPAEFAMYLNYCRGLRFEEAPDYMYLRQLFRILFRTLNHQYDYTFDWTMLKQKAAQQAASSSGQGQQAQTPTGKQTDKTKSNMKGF
Description: as §1

RIPK2 = RIPK2 (Homo sapiens, UniProt O43353); experiment: SelectScreen kinase assay
Description: as §1

STK25 (YSK1) = STK25 (YSK1) (Homo sapiens, UniProt O00506); experiment: SelectScreen kinase assay
Description: as §1

PRKCA (PKC alpha) = PRKCA (PKC alpha) (Homo sapiens, UniProt P17252); experiment: SelectScreen kinase assay
Description: as §1

RPS6KB2 (p70S6Kb) = RPS6KB2 (p70S6Kb) (Homo sapiens, UniProt Q9UBS0); experiment: SelectScreen kinase assay
Chain of RPS6KB2 (p70S6Kb) (Q9UBS0 whole entry): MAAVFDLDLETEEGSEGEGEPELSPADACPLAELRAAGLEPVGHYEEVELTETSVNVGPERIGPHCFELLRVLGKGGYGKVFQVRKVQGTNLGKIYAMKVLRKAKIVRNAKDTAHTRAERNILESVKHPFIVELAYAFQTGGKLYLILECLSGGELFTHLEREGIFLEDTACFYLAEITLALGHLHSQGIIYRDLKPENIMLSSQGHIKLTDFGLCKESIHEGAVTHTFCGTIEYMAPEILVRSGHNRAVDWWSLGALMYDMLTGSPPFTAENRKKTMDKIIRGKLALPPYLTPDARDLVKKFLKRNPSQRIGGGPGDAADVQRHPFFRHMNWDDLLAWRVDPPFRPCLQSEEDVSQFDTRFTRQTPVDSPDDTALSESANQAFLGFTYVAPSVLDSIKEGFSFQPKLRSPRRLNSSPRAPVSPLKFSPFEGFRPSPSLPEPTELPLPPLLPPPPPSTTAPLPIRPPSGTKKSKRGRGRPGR
Description: as §1

CDC42 BPG (MRCKG) = CDC42 BPG (MRCKG) (Homo sapiens, UniProt Q6DT37); experiment: SelectScreen kinase assay
Description: as §1

[3] = read-out: Inhibition at 1 µM (%)
[4] = 1 µM, ZLYTE, ATP Km app, listed as WEL028, 1 µM
[5] = 1 h, 1 μM WEL028, 1 h preincubation

SMILES: C#CCOc1ccc(Nc2ncc(Cl)c(Nc3ccccc3NC(=O)C=C)n2)c(OC)c1 [Compound 6]
- Inhibition (%) (WNK1; 1 μM WEL028, 1 h preincubation): 5%
- Inhibition at 1 µM (%) (WNK1; 1 µM, LanthaScreen Binding): 11%
- inhibition at 1 µM (PAK1; 1 h): 8%
- inhibition at 1 µM (PAK1; [3]): 8%
- Inhibition (%) (RPS6KA6 (RSK4); 1 μM WEL028, 1 h preincubation): 5%
- Inhibition at 1 µM (%) (RPS6KA6 (RSK4); [4]): 1% and 9%
- inhibition at 1 µM (PIK3C2A (PI3K-C2 alpha)): 5%
- inhibition at 1 µM (HIPK2; [5]): 1%
- Inhibition at 1 µM (%) (HIPK2): 2%
- Inhibition at 1 µM (%) (HIPK2; listed as WEL028, 1 µM): 0%
- IC50 (ROS1): > 10 µM
- Inhibition at 1 µM (%) (ROS1; [4]): 52%
- inhibition at 1 µM (ROS1; [5]): 56%
- inhibition at 10 µM (ROS1; 1 h, log[inhibitor] (M) -5.00, ZLYTE, ATP Km app): 76%
- inhibition at 3.31 µM (ROS1; 1 h, log[inhibitor] (M) -5.48, ZLYTE, ATP Km app): 80%
- inhibition at 1.12 µM (ROS1; 1 h, log[inhibitor] (M) -5.95, ZLYTE, ATP Km app): 53%
- inhibition at 0.372 µM (ROS1; 1 h, log[inhibitor] (M) -6.43, ZLYTE, ATP Km app): 42%
- inhibition at 0.123 µM (ROS1; 1 h, log[inhibitor] (M) -6.91, ZLYTE, ATP Km app): 23%
- inhibition at 0.00151 µM (ROS1; 1 h, log[inhibitor] (M) -8.82, ZLYTE, ATP Km app): 6%
- Apparent fold selectivity (ROS1; IC50 on that kinase divided by IC50 on FES^S700C): > 238 fold
- inhibition at 1 µM (ROS1; read-out: Inhibition at 1 µM (%), 1 µM, ZLYTE, ATP Km app): 60%
- Target engagement of engineered FES ([1]; 100 nM WEL028 during PMA-induced differentiation): full target engagement
- Relative FES labeling (%) ([1]; WEL028 100 nM): 6.297% and 1.811% and 0.4549%
- Relative FES labeling (%) ([1]; WEL028 1 µM): -1.423% and -3.177% and -0.4317%
- inhibition at 1 µM (GRK4; [5]): -1%
- Inhibition at 1 µM (%) (GRK4): -2%
- Inhibition at 1 µM (%) (GRK4; listed as WEL028, 1 µM): 1%
- Co-precipitation of SYK with FES [2]: inhibited the co-precipitation of SYK with FES
- inhibition at 1 µM (IKBKE (IKK epsilon)): 2%
- inhibition at 1 µM (CSNK1A1 (CK1 alpha 1); [5]): 9%
- Inhibition at 1 µM (%) (CSNK1A1 (CK1 alpha 1); CSNK1A1 (CK1 alpha 1), 1 µM, ZLYTE, ATP Km app, listed as WEL028, 1 µM): 12%
- inhibition at 1 µM (CSNK1A1 (CK1 alpha 1); read-out: Inhibition at 1 µM (%), CSNK1A1 (CK1 alpha 1), 1 µM, ZLYTE, ATP Km app): 6%
- inhibition at 1 µM (RIPK2; 1 h): 1%
- inhibition at 1 µM (RIPK2; [3]): 1%
- Inhibition at 1 µM (%) (STK25 (YSK1); 1 µM, ZLYTE, ATP Km app): 15%
- inhibition at 1 µM (STK25 (YSK1); [5]): 5%
- inhibition at 1 µM (PRKCA (PKC alpha); [5]): 14%
- Inhibition at 1 µM (%) (PRKCA (PKC alpha); PRKCA (PKC alpha), 1 µM, ZLYTE, ATP Km app, listed as WEL028, 1 µM): 10%
- inhibition at 1 µM (PRKCA (PKC alpha); read-out: Inhibition at 1 µM (%), PRKCA (PKC alpha), 1 µM, ZLYTE, ATP Km app): 19%
- Inhibition at 1 µM (%) (RPS6KB2 (p70S6Kb); [4]): 1% and 4%
- inhibition at 1 µM (RPS6KB2 (p70S6Kb); [5]): 3%
- inhibition at 1 µM (CDC42 BPG (MRCKG); 1 h): -1%
- inhibition at 1 µM (CDC42 BPG (MRCKG); [3]): -1%
